Reference: US5593960A, “Cyclic heptapeptide anti-inflammatory agent” (The Regents of the University of California, priority 1995, dated 1997)

Tested on: phorbol-induced inflammation (edema) of mouse ears
Experiment: Inhibition of Mouse Ear Edema - Standard Protocol (topical, PMA-induced)
Assay type: in vivo
Conditions: for Inhibition of mouse ear edema: relative to PMA control
Procedure: Cyclomarin-A was tested by measuring inhibition of phorbol-induced inflammation (edema) of mouse ears. […] The compound is topically applied in acetone to the inside pinnae of the ears of mice in a solution containing the edema-causing irritant, i.e. phorbol 12-myristate 13-acetate (PMA). PMA alone (2 microgram per ear) or in combination with varying amounts of cyclomarin-A was applied to the left ears of (5 mice per treatment group). Acetone was applied to all right ears. After a 3-hour and 20-minute incubation at 23° C., the mice were sacrificed, the ears removed and bores taken and weighed. Edema was measured by subtracting the weight of the right ear (acetone control) from the weight of the left ear (treated). The results were recorded as a percent decrease (inhibition) or percent increase (potentiation) in edema relative to the PMA control group edema.

## cyclomarin-A
5 ug/ear with PMA 2 microgram per ear
  Inhibition of mouse ear edema: 3.0%
10 ug/ear with PMA 2 microgram per ear
  Inhibition of mouse ear edema: 39.0%
25 ug/ear with PMA 2 microgram per ear
  Inhibition of mouse ear edema: 57.0%
50 ug/ear with PMA 2 microgram per ear
  Inhibition of mouse ear edema: 88.0%
General statement
  topical anti-inflammatory activity: exhibit topical anti-inflammatory activity
